The text below walks through data of PubChem BioAssay AID248 (DTP/NCI, 2004).

Values joined by “and” are separate entries in the source; they are usually repeats but may differ in a detail not shown here. Equal values may be shown once. Toxic doses and inconclusive results are not listed.

This assay relates to L1210 leukemia ip in BDF1 mice, survival T/C. As to the kind of experiment: NCI In Vivo Anticancer Drug Screen. Data for tumor model L1210 Leukemia (intraperitoneal) in B6D2F1 (BDF1) mice. The settings on record: endpoint: mean survival time, higher = longer survival. A digest of the protocol:
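Tumor cells were implanted, animals were treated, and survival was followed. The result divides the treated measurement by the vehicle-control measurement.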

[1] abbreviates: dose: 25.0 mg/kg/injection, schedule: Q01DX009 (ip), vehicle: saline with Tween-80.
The mark [2] stands for this setting: dose: 25.0 mg/kg/injection, schedule: Q04DX003 (ip), vehicle: saline with Tween-80.
Setting [3] is: dose: 50.0 mg/kg/injection, schedule: Q01DX009 (ip), vehicle: saline with Tween-80.
[4] abbreviates: dose: 50.0 mg/kg/injection, schedule: Q04DX003 (ip), vehicle: saline with Tween-80.
The mark [5] stands for this setting: dose: 100.0 mg/kg/injection, schedule: Q01DX009 (ip), vehicle: saline with Tween-80.
[6] abbreviates: dose: 100.0 mg/kg/injection, schedule: Q04DX003 (ip), vehicle: saline with Tween-80.
Setting [7] is: dose: 100.0 mg/kg/injection, schedule: Q01DX001 (ip), vehicle: saline.
[8] abbreviates: dose: 200.0 mg/kg/injection, schedule: Q01DX001 (ip), vehicle: saline.
Setting [9] is: dose: 200.0 mg/kg/injection, schedule: Q04DX003 (ip), vehicle: saline with Tween-80.
The mark [10] stands for this setting: dose: 400.0 mg/kg/injection, schedule: Q04DX003 (ip), vehicle: saline with Tween-80.

`CN(CCS)Cc1ccccc1`: the T/C is, setting by setting: under setting [1], 97 % of control; under setting [2], 95 % of control; under setting [3], 99 % of control; under setting [4], 106 % of control; under setting [5], 103 % of control; under setting [6], 97 % of control and 102 % of control.

For `Nc1ccc(C(=O)CCCN2CCCCC2)cc1`, the T/C (dose: 12.5 mg/kg/injection, schedule: Q01DX009 (ip), vehicle: saline) was 103 % of control; the T/C (dose: 25.0 mg/kg/injection, schedule: Q01DX009 (ip), vehicle: saline) is 97 % of control; the T/C (dose: 50.0 mg/kg/injection, schedule: Q01DX009 (ip), vehicle: saline) is 100 % of control.

As to `C/C(=C\C(C)(C)C(C)(C)C)C(C)(C)C`, the T/C reads like this: (dose: 50.0 mg/kg/injection, schedule: Q04DX002 (ip), vehicle: saline with Tween-80) 100 % of control; (dose: 100.0 mg/kg/injection, schedule: Q04DX002 (ip), vehicle: saline with Tween-80) 95 % of control; (dose: 200.0 mg/kg/injection, schedule: Q04DX002 (ip), vehicle: saline with Tween-80) 92 % of control; (dose: 400.0 mg/kg/injection, schedule: Q04DX002 (ip), vehicle: saline with Tween-80) 92 % of control.

Regarding `CCN(CC)CCN1C(=O)c2cccc3cccc(c23)C1=O`, the T/C is 102 % of control (dose: 10.5 mg/kg/injection, schedule: Q03HX024 (ip), vehicle: saline); 98 % of control (dose: 15.7 mg/kg/injection, schedule: Q03HX024 (ip), vehicle: saline); 99 % of control (dose: 23.4 mg/kg/injection, schedule: Q03HX024 (ip), vehicle: saline); 111 % of control (dose: 34.8 mg/kg/injection, schedule: Q03HX024 (ip), vehicle: saline); 165 % of control (dose: 52.0 mg/kg/injection, schedule: Q03HX024 (ip), vehicle: saline); 111 % of control (dose: 96.0 mg/kg/injection, schedule: Q01DX009 (ip), vehicle: saline). Also, the T/C was 96 % of control (dose: 96.0 mg/kg/injection, schedule: Q03HX024 (ip), vehicle: saline); 103 % of control (dose: 105.0 mg/kg/injection, schedule: Q01DX001 (ip), vehicle: saline); 100 % of control (dose: 105.0 mg/kg/injection, schedule: Q04DX003 (ip), vehicle: saline); 100 % of control (dose: 157.0 mg/kg/injection, schedule: Q01DX001 (ip), vehicle: saline); 110 % of control (dose: 157.0 mg/kg/injection, schedule: Q04DX003 (ip), vehicle: saline).

With `C=C(C)C(=O)O[C@@H]1C[C@@]2(C)O[C@@H]2C[C@H](O)/C(C)=C/[C@H]2OC(=O)C(=C)[C@@H]21`, the T/C is, setting by setting: (dose: 25.0 mg/kg/injection, schedule: Q01DX001 (ip), vehicle: saline) 91 % of control; (dose: 50.0 mg/kg/injection, schedule: Q01DX001 (ip), vehicle: saline) 96 % of control; under setting [7], 112 % of control.

As for `Oc1c(CN2CCOCC2)cc(N=Nc2ccccc2)c(O)c1CN1CCOCC1`, the T/C was 88 % of control under setting [7]; 104 % of control under setting [8]; 88 % of control (dose: 400.0 mg/kg/injection, schedule: Q01DX001 (ip), vehicle: saline).

`COc1ccc(OC)c2c1C=CCC2`: the T/C is, setting by setting: (dose: 100.0 mg/kg/injection, schedule: Q01DX001 (ip), vehicle: carboxymethylcellulose (CMC)) 96 % of control; (dose: 200.0 mg/kg/injection, schedule: Q01DX001 (ip), vehicle: carboxymethylcellulose (CMC)) 91 % of control; (dose: 400.0 mg/kg/injection, schedule: Q01DX001 (ip), vehicle: carboxymethylcellulose (CMC)) 104 % of control.

With `COC(=O)c1ccccc1NN=Nc1ccccc1[N+](=O)[O-]`, the T/C runs as follows: (dose: 100.0 mg/kg/injection, schedule: Q01DX009 (ip), vehicle: Klucel (hydroxypropylcellulose) (HPC)) 93 % of control; (dose: 100.0 mg/kg/injection, schedule: Q04DX003 (ip), vehicle: Klucel (hydroxypropylcellulose) (HPC)) 97 % of control and 86 % of control; (dose: 200.0 mg/kg/injection, schedule: Q01DX009 (ip), vehicle: Klucel (hydroxypropylcellulose) (HPC)) 88 % of control; (dose: 200.0 mg/kg/injection, schedule: Q04DX003 (ip), vehicle: Klucel (hydroxypropylcellulose) (HPC)) 98 % of control and 89 % of control; (dose: 400.0 mg/kg/injection, schedule: Q01DX009 (ip), vehicle: Klucel (hydroxypropylcellulose) (HPC)) 97 % of control; (dose: 400.0 mg/kg/injection, schedule: Q04DX003 (ip), vehicle: Klucel (hydroxypropylcellulose) (HPC)) 95 % of control and 97 % of control.

Turning to `COc1ccc(OC)c(/C=C(C(=O)O)/C(=C/c2cc(OC)ccc2OC)C(=O)O)c1`, the T/C by setting is: under setting [6], 105 % of control; under setting [9], 102 % of control; under setting [10], 97 % of control.

Regarding `CC(=O)OCC1OC(OC2C(COC(C)=O)OC(Sc3ccccc3)C(OC(C)=O)C2OC(C)=O)C(OC(C)=O)C(OC(C)=O)C1OC(C)=O` (centres undefined), the T/C runs as follows: (dose: 3.13 mg/kg/injection, schedule: Q01DX009 (ip), vehicle: saline with Tween-80) 89 % of control; (dose: 12.5 mg/kg/injection, schedule: Q01DX009 (ip), vehicle: saline with Tween-80) 89 % of control; under setting [1], 90 % of control; under setting [2], 95 % of control; under setting [3], 90 % of control; under setting [4], 95 % of control. Also, the T/C reads like this: under setting [5], 88 % of control; under setting [6], 92 % of control; (dose: 200.0 mg/kg/injection, schedule: Q01DX009 (ip), vehicle: saline with Tween-80) 94 % of control; under setting [9], 91 % of control; under setting [10], 87 % of control.

Take `NC(=O)Cc1cccc(=O)[nH]1`: the T/C is 100 % of control (dose: 100.0 mg/kg/injection, schedule: Q01DX001 (ip), vehicle: Klucel (hydroxypropylcellulose) (HPC)); 97 % of control (dose: 200.0 mg/kg/injection, schedule: Q01DX001 (ip), vehicle: Klucel (hydroxypropylcellulose) (HPC)); 95 % of control (dose: 400.0 mg/kg/injection, schedule: Q01DX001 (ip), vehicle: Klucel (hydroxypropylcellulose) (HPC)).

`O=C(O)c1cccc(N2C(=O)CSC2=S)c1`: the T/C reads like this: (dose: 25.0 mg/kg/injection, schedule: Q04DX002 (ip), vehicle: Klucel (hydroxypropylcellulose) (HPC)) 94 % of control; (dose: 50.0 mg/kg/injection, schedule: Q04DX002 (ip), vehicle: Klucel (hydroxypropylcellulose) (HPC)) 93 % of control and 91 % of control; (dose: 100.0 mg/kg/injection, schedule: Q04DX002 (ip), vehicle: Klucel (hydroxypropylcellulose) (HPC)) 93 % of control and 102 % of control; (dose: 200.0 mg/kg/injection, schedule: Q04DX002 (ip), vehicle: Klucel (hydroxypropylcellulose) (HPC)) 88 % of control.

With `CC1(C)CC(=O)c2c(cc3c(c2O)C(=O)CC(C)(C)O3)O1`, the T/C reads like this: (dose: 100.0 mg/kg/injection, schedule: Q01DX009 (ip), vehicle: saline) 94 % of control; (dose: 100.0 mg/kg/injection, schedule: Q04DX003 (ip), vehicle: saline) 100 % of control; (dose: 200.0 mg/kg/injection, schedule: Q01DX009 (ip), vehicle: saline) 94 % of control; (dose: 200.0 mg/kg/injection, schedule: Q04DX003 (ip), vehicle: saline) 94 % of control; (dose: 400.0 mg/kg/injection, schedule: Q01DX009 (ip), vehicle: saline) 95 % of control; (dose: 400.0 mg/kg/injection, schedule: Q04DX003 (ip), vehicle: saline) 106 % of control.

In the case of `O=C(NCCCCCCNC(=O)OCc1ccccc1)OCc1ccccc1`, the T/C is, setting by setting: (dose: 10.0 mg/kg/injection, schedule: Q01DX Z (ip), vehicle: saline) 98 % of control; (dose: 30.0 mg/kg/injection, schedule: Q01DX Z (ip), vehicle: saline) 96 % of control; (dose: 100.0 mg/kg/injection, schedule: Q01DX Z (ip), vehicle: saline) 100 % of control; (dose: 300.0 mg/kg/injection, schedule: Q01DX Z (ip), vehicle: saline) 98 % of control.

In the case of `CCCCn1cnc2ccc3[nH]c(C)nc3c2c1=O`, the T/C is 104 % of control (dose: 12.5 mg/kg/injection, schedule: Q01DX001 (ip), vehicle: carboxymethylcellulose (CMC)) and 96 % of control (dose: 25.0 mg/kg/injection, schedule: Q01DX001 (ip), vehicle: carboxymethylcellulose (CMC)).

For the compound `Cc1ccc(N(C=O)N=O)cc1`, the T/C under setting [7] was 101 % of control and the T/C under setting [8] was 98 % of control.
